The test system of one experiment is mixture of bacteria. As to the kind of experiment: CTFA Preservative Challenge Test in shampoo, mixed bacteria. As to conditions: for concentration of the component alone required to yield 100% retardation (Qa, Qb): percent by weight in shampoo, plate count <10 cfu/g after 7 days; for Day 7 Count Mixed Bacteria: shampoo containing the sample, initial count 4×10^6 cfu/mL, surviving organisms on day 7. The class given is cell-based. The procedure:
(§1) The CTFA Preservative Challenge Test was performed on a shampoo containing the samples below against a mixture of fungi (C. albicans (ATCC #10231) and A. brasiliensis (ATCC #16404)) having an initial count of 7.9×10^5 cfu/mL or a mixture of bacteria having an initial count of 4×10^6 cfu/mL. The shampoos inoculated with bacteria were allowed to stand for 14 days and the shampoos inoculated with fungi were allowed to stand for 7 days. The samples were evaluated for surviving organisms on day 7 for fungi-innoculated shampoos and days 7 and 14 for bacteria-innoculated shampoos.
From the table, synergism for the combinations above against mixed bacteria in shampoo was calculated by the method described in C. E. Kull et al., “Mixtures of Quaternary Ammonium Compounds and Long-chain Fatty Acids as Antifungal Agents”, Applied Microbiology, 9:538-541 (1961). The synergism value (QA/Qa+QB/Qb) was determined. […] Qa is the concentration of the first component alone (in percent by weight) required to yield 100% retardation of the bacteria or fungi. Qb is the concentration of the second component alone (in percent by weight) required to yield 100% retardation of the bacteria or fungi. […] Values for (QA/Qa+QB/Qb) of 1 and greater represent an additive effect and an antagonistic effect, respectively.

Experiment [1] has as its system mixture of fungi (C. albicans (ATCC #10231) and A. brasiliensis (ATCC #16404)). In words: CTFA Preservative Challenge Test in shampoo, mixed fungi. To be noted: shampoo containing the sample; initial count 7.9×10^5 cfu/mL; surviving organisms on day 7. It counts as cell-based. On the procedure: as §1
From the table, synergism for the combinations above against mixed bacteria in shampoo was calculated by the method described in C. E. Kull et al., “Mixtures of Quaternary Ammonium Compounds and Long-chain Fatty Acids as Antifungal Agents”, Applied Microbiology, 9:538-541 (1961). The synergism value (QA/Qa+QB/Qb) was determined. […] Qa is the concentration of the first component alone (in percent by weight) required to yield 100% retardation of the bacteria or fungi. Qb is the concentration of the second component alone (in percent by weight) required to yield 100% retardation of the bacteria or fungi. When the value of (QA/Qa+QB/Qb) is less than one, the mixture is synergistic. Values for (QA/Qa+QB/Qb) of 1 and greater represent an additive effect and an antagonistic effect, respectively. […]

The structures appear in SMILES notation.

Consider `CC(=O)c1ccc(O)cc1` [0.35% hydroxyacetophenone, 4-hydroxyacetophenone], for which, in the experiment with mixture of bacteria, the “concentration of the component alone required to yield 100% retardation (Qa, Qb)” value is greater than 0.35% and the “Day 7 Count Mixed Bacteria” value was 3.2 × 10^2 cfu/mL. Also, the “Day 7 Count Mixed Fungi” value in experiment [1] is given as 1.5 × 10^2 cfu/mL.

Take `OCCCO` [5% 1,3-propanediol, 1,3-propanediol]: in the experiment on mixture of bacteria, the “concentration of the component alone required to yield 100% retardation (Qa, Qb)” value is given as greater than 5% and the “Day 7 Count Mixed Bacteria” value is 5.2 × 10^2 cfu/mL. For the same compound, the “Day 7 Count Mixed Fungi” value in experiment [1] is 9.2 × 10^2 cfu/mL.

The record behind these values is patent publication US20250268253A1, “MULTIFUNCTIONAL NATURAL PROTECTANT SYSTEMS WITH HYDROXYACETOPHENONE” (BARENTZ NORTH AMERICA, LLC, priority 2021, published 2025).
